Target: T1, AXL (human catalytic domain) (Homo sapiens, UniProt P30530)
T1 construct: purchased Upstate Ltd. 14-512
T1 sequence (P30530 473-894): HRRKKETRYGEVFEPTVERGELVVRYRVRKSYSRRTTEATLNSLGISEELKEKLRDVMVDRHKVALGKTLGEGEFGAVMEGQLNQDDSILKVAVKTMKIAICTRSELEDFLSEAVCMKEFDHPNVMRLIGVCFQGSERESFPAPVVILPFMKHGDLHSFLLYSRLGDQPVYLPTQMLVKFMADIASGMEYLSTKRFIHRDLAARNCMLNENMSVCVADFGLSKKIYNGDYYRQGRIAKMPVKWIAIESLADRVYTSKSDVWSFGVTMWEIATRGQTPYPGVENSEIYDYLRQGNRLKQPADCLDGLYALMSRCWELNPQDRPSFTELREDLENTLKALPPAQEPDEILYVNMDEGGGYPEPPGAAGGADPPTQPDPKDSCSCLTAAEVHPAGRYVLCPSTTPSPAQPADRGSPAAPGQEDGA
Assay: AXL (human catalytic domain) Enzyme Activity Assay (IMAP fluorescence polarisation)
Format: biochemical
Method in brief: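 Recombinant human AXL isoform 1 (aa473-894; final 15 nM) phosphorylated 100 nM fluorescein-CSK-tide with 150 μM ATP (KM) in HEPES pH 7.0/MgCl2/DTT buffer for 60 min at room temperature. IMAP fluorescence polarisation read after overnight binding; IC50 from 10-point 4-parameter logistic fits.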

[1] = first data set, recombinant AXL isoform 1 aa473-894, 150 μM ATP
[2] = further data set (WW-001 through WW-169, XX-001 through XX-469, YY-001 through YY-016, ZZ-001 through ZZ-003), 150 μM ATP

| SMILES | IC50 [1] [µM] | IC50 [2] [µM] |
| --- | --- | --- |
| O=C(Nc1nc2cccc(-c3ccc4[nH]ccc4c3)n2n1)C1CC1 [WW-018] | < 1 | 0.1 to 1 |
| CNCCOc1cccc(Nc2nc3cccc(-c4ccc5c(c4)OCCO5)n3n2)c1 [XX-081] | < 1 | ≤ 0.1 |
| CNc1ccc(-c2cccc3nc(NC(=O)C4CC4)nn23)cc1 [WW-120, Cyclopropanecarboxylic acid [5-(4-methylamino-phenyl)-[1,2,4]triazolo[1,5-a]pyridin-2-yl]-amide] | 1 to 10 | 1 to 10 |
| NC(=O)c1cccc(-c2cccc3nc(NC(=O)C4CC4)nn23)c1 [WW-015] | 1 to 10 | 1 to 10 |
| COc1cccc(-c2cccc3nc(NC(=O)C4CC4)nn23)c1 [WW-024] | 1 to 10 | 1 to 10 |
| CCN(CC)CCOc1ccc(Nc2nc3cccc(-c4ccc5c(c4)OCCO5)n3n2)cn1 [XX-162] | – | ≤ 0.1 |
| CN(C(=O)CN1CCCC1)c1ccc(Nc2nc3cccc(-c4ccc5c(c4)OCCO5)n3n2)cc1 [XX-153] | – | ≤ 0.1 |
| CN(C)CCOc1ccc(Nc2nc3cccc(-c4ccc5c(c4)OCO5)n3n2)cc1 [XX-048] | < 1 | 0.1 to 1 |
| O=C(Nc1nc2cccc(-c3ccc(-n4cccn4)cc3)n2n1)C1CC1 [WW-109] | 1 to 10 | 1 to 10 |
| O=S(=O)(c1ccc(Nc2nc3cccc(-c4ccc5c(c4)OCCO5)n3n2)cc1)N1CCNCC1 [XX-145] | – | 0.1 to 1 |
| CC(C(=O)Nc1ccc(Nc2nc3cccc(-c4ccc5c(c4)OCCO5)n3n2)cc1)N1CCCC1 (stereo not shown) [XX-135] | – | 0.1 to 1 |
| COc1ccc(-c2cccc3nc(NC(=O)CC(C)C)nn23)cc1 [WW-043] | 1 to 10 | 1 to 10 |
| Cc1ccc(-c2cccc3nc(Nc4cccc(C(=O)NCCN5CCCC5)c4)nn23)cc1F [XX-365] | – | 0.1 to 1 |
| C#CCOc1ccc(-c2cccc3nc(NC(=O)C4CC4)nn23)cc1 [WW-122] | 1 to 10 | 1 to 10 |
| Fc1cc(Nc2nc3cccc(-c4ccc5c(c4)OCCO5)n3n2)ccc1OCCN1CCCC1 [XX-133] | – | ≤ 0.1 |
| C[C@H](CN)Oc1ccc(Nc2nc3cccc(-c4ccc5c(c4)OCCO5)n3n2)cc1 [XX-142] | – | 0.1 to 1 |
| CN(C)CCNC(=O)c1ccc(Nc2nc3cccc(-c4ccc5occc5c4)n3n2)cc1 [XX-084] | < 1 | ≤ 0.1 |
| c1cc(NCCCN2CCCCC2)cc(Nc2nc3cccc(-c4ccc5c(c4)OCCO5)n3n2)c1 [XX-131] | – | ≤ 0.1 |

| SMILES | IC50 [1] [µM] | IC50 [2] [µM] |
| --- | --- | --- |
| CC(CN)Oc1ccc(Nc2nc3cccc(-c4ccc5c(c4)OCCO5)n3n2)cc1 (stereo not shown) [XX-118] | – | ≤ 0.1 |
| CC(Nc1cccc2nc(NC(=O)C3CC3)nn12)c1ccccc1 (stereo not shown) [WW-113] | 1 to 10 | 1 to 10 |
| O=C(Nc1nc2cccc(-c3ccnc(F)c3)n2n1)C1CC1 [WW-030] | 1 to 10 | 1 to 10 |
| COc1ccc(-c2cccc3nc(Nc4ccc(N(C)C)cc4)nn23)cc1 [XX-057] | 1 to 10 | 1 to 10 |
| O=C(Nc1nc2cccc(-c3cccs3)n2n1)C1CC1 [WW-057] | 1 to 10 | 1 to 10 |
| NCCCNc1ccc(-c2cccc3nc(NC(=O)C4CC4)nn23)cc1 [WW-157] | 1 to 10 | 1 to 10 |
| CC(CNc1ccc(Nc2nc3cccc(-c4ccc5c(c4)OCCO5)n3n2)cc1)N1CCCC1 (stereo not shown) [XX-139] | – | ≤ 0.1 |
| CN(C)C/C=C/c1ccc(Nc2nc3cccc(-c4ccc5c(c4)OCCO5)n3n2)cc1 [XX-082] | < 1 | ≤ 0.1 |
| CC(=O)Nc1ccc(-c2cccc3nc(NC(=O)C4CC4)nn23)cc1 [WW-068] | 1 to 10 | 1 to 10 |
| CCN(CC)CCOc1cc(Nc2nc3cccc(-c4ccc(OC(C)C)cc4)n3n2)ccn1 [XX-360] | – | ≤ 0.1 |
| O=C(Nc1nc2cccc(-c3ccc4ccccc4c3)n2n1)C1CC1 [WW-089] | < 1 | 0.1 to 1 |
| COc1ccc(Nc2cccc3nc(NC(=O)C4CC4)nn23)cc1 [WW-127, Cyclopropanecarboxylic acid [5-(4-methoxy-phenylamino)-[1,2,4]triazolo[1,5-a]pyridin-2-yl]-amide] | 1 to 10 | 1 to 10 |
| O=C(Nc1nc2cccc(-c3ccc4ncccc4c3)n2n1)C1CC1 [WW-092] | < 1 | 0.1 to 1 |
| CCOc1ccc(-c2cccc3nc(NC(=O)C4CC4)nn23)cc1F [WW-101] | 1 to 10 | 1 to 10 |
| O=C(Nc1nc2cccc(-c3cccc(CO)c3)n2n1)C1CC1 [WW-028] | 1 to 10 | 1 to 10 |
| COC(=O)c1ccc(-c2cccc3nc(NC(=O)C4CC4)nn23)cc1 [WW-070] | 1 to 10 | 1 to 10 |
| O=C(Nc1nc2cccc(-c3cccc(-n4cccn4)c3)n2n1)C1CC1 [WW-137] | 1 to 10 | 1 to 10 |

Other lines, results leading:

| IC50 [1] [µM] | IC50 [2] [µM] | SMILES |
| --- | --- | --- |
| – | 0.1 to 1 | Cc1nc(C)c(CNc2cccc(-c3cccc4nc(Nc5ccc(OCCN6CCCC6)cc5)nn34)c2)s1 [XX-263] |
| < 1 | 0.1 to 1 | COc1ccc(-c2cccc3nc(Nc4ccc(OCCNCc5ccc(N)cc5)cc4)nn23)cc1 [XX-034] |
| – | 0.1 to 1 | c1ccc2oc(-c3cccc4nc(Nc5ccc(OCCN6CCCC6)cc5)nn34)cc2c1 [XX-293] |
| – | 1 to 10 | COc1cc(-c2cccc3nc(Nc4ccc(OCCN5CCCC5)cc4)nn23)cc(OC)c1OC [XX-246] |
| – | 0.1 to 1 | Cn1nccc1-c1cccc(-c2cccc3nc(Nc4ccc(OCCN5CCCC5)cc4)nn23)c1 [XX-169] |
| – | ≤ 0.1 | CCCn1cc(-c2cccc3nc(Nc4ccc(OCCN5CCCC5)cc4)nn23)cn1 [XX-318] |
| – | 0.1 to 1 | Cc1noc(C)c1S(=O)(=O)n1cc(-c2cccc3nc(Nc4ccc(OCCN5CCCC5)cc4)nn23)cn1 [XX-385] |
| – | ≤ 0.1 | CC(C)CCn1cc(-c2cccc3nc(Nc4ccc(OCCN5CCCC5)cc4)nn23)cn1 [XX-353] |
| – | 1 to 10 | Clc1cccc(COc2cccc(-c3cccc4nc(Nc5ccc(OCCN6CCCC6)cc5)nn34)c2)c1 [XX-330] |
| < 1 | 0.1 to 1 | c1cc(-c2ccc3c(c2)OCCO3)n2nc(Nc3ccc(OCCN4CCCC4)cc3)nc2c1 [XX-018] |
| – | 0.1 to 1 | Cc1nnc(SCCn2cc(-c3cccc4nc(Nc5ccc(OCCN6CCCC6)cc5)nn34)cn2)s1 [XX-430] |
| – | 0.1 to 1 | O=C(Cn1cc(-c2cccc3nc(Nc4ccc(OCCN5CCCC5)cc4)nn23)cn1)Nc1cccc(Cl)c1 [XX-435] |
| – | 0.1 to 1 | FC(F)(F)c1cccc(Cn2cc(-c3cccc4nc(Nc5ccc(OCCN6CCCC6)cc5)nn34)cn2)c1 [XX-273] |
| – | 0.1 to 1 | CC(C)CC(=O)NCc1cccc(-c2cccc3nc(Nc4ccc(OCCN5CCCC5)cc4)nn23)c1 [XX-325, 3-Methyl-N-(3-{2-[4-(2-pyrrolidin-1-yl-ethoxy)-phenylamino]-[1,2,4]triazolo[1,5-a]pyridin-5-yl}-benzyl)-butyramide] |
| – | 1 to 10 | COc1ccc(-c2cccc(-c3cccc4nc(Nc5ccc(OCCN6CCCC6)cc5)nn34)c2)cc1 [XX-468] |
| – | 0.1 to 1 | Cc1cc(Cn2cc(-c3cccc4nc(Nc5ccc(OCCN6CCCC6)cc5)nn34)cn2)no1 [XX-305] |
| – | 1 to 10 | CC(C)(C)CNC(=O)Cn1cc(-c2cccc3nc(Nc4ccc(OCCN5CCCC5)cc4)nn23)cn1 [XX-092, N-(2,2-Dimethyl-propyl)-2-(4-{2-[4-(2-pyrrolidin-1-yl-ethoxy)-phenylamino]-[1,2,4]triazolo[1,5-a]pyridin-5-yl}-pyrazol-1-yl)-acetamide] |
| – | 0.1 to 1 | COC(=O)c1ccc(-c2cccc3nc(Nc4ccc(OCCN5CCCC5)cc4)nn23)cc1 [XX-199] |
| – | 1 to 10 | O=C(Nc1ccc(-c2cccc3nc(Nc4ccc(OCCN5CCCC5)cc4)nn23)cc1)c1ccccc1 [XX-221, N-(4-{2-[4-(2-Pyrrolidin-1-yl-ethoxy)-phenylamino]-[1,2,4]triazolo[1,5-a]pyridin-5-yl}-phenyl)-benzamide] |
| – | 0.1 to 1 | CCn1cc(-c2cccc3nc(Nc4ccc(OCCN5CCCC5)cc4)nn23)cn1 [XX-315] |
| – | 0.1 to 1 | O=C(Nc1ccc(-c2cccc3nc(Nc4ccc(OCCN5CCCC5)cc4)nn23)cc1)c1ccncc1 [XX-249] |
| – | 0.1 to 1 | c1cc(-c2ccc3c(c2)OCCO3)n2nc(Nc3ccc(OCCN4CCCC4)nc3)nc2c1 [XX-102] |
| – | 0.1 to 1 | CC(Oc1cccc(-c2cccc3nc(Nc4ccc(OCCN5CCCC5)cc4)nn23)c1)C(=O)Nc1ccccc1 (stereo not shown) [XX-403] |
| – | 0.1 to 1 | CS(=O)(=O)Nc1cccc(-c2cccc3nc(Nc4ccc(OCCN5CCCC5)cc4)nn23)c1 [XX-224] |
| – | 0.1 to 1 | Nc1ccc(-c2cccc3nc(Nc4ccc(OCCN5CCCC5)cc4)nn23)cc1 [XX-184] |
| – | 0.1 to 1 | Fc1ccc(-c2cccc3nc(Nc4ccc(OCCN5CCCC5)cc4)nn23)cc1Cl [XX-282] |
| – | 0.1 to 1 | c1ccc(-c2cccc(-c3cccc4nc(Nc5ccc(OCCN6CCCC6)cc5)nn34)c2)cc1 [XX-164, (5-Biphenyl-3-yl-[1,2,4]triazolo[1,5-a]pyridin-2-yl)-[4-(2-pyrrolidin-1-yl-ethoxy)-phenyl]-amine] |
| – | 1 to 10 | CC(=O)Nc1ccc(S(=O)(=O)Nc2ccc(-c3cccc4nc(Nc5ccc(OCCN6CCCC6)cc5)nn34)cc2)cc1 [XX-277] |
| – | 1 to 10 | COc1ccc(-c2nc(COc3cccc(-c4cccc5nc(Nc6ccc(OCCN7CCCC7)cc6)nn45)c3)no2)cc1 [XX-461] |
| – | 0.1 to 1 | OCc1ccc(-c2cccc3nc(Nc4ccc(OCCN5CCCC5)cc4)nn23)cc1 [XX-237] |
